Where “and” joins values, the source holds several entries; their conditions need not be identical. Equal values may be shown once. Entries after “also recorded” stand apart in the source; their conditions may differ.
Columns and labels:
[1] = Pharmacokinetics of single-dose iv in Beagle dogs; settings: for maximum plasma drug concentration: dogs;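 for all read-outs here: plasma levels in healthy adult Beagle dogs, five per dose group, after slow forelimb iv injection over 5 min, parameters from non-compartmental statistical moment analysis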
Description: Pharmacokinetical studies were carried out in three groups at the doses of 10 mg/Kg, 20 mg/Kg and 30 mg/Kg. Five healthy adult Beagle dogs were chosen into each dose group. […] The intravenous injection was performed in one forelimb of each tested dog within 5 min in a very slow manner. Three hours after the intravenous injection, the dogs could be fed. 3 ml of venous blood was sampled in heparinized tubes from another forelimb of each tested dog before and 0, 5, 10, 20, 40, 60, 90, 120, 180, 240, 300, 360 and 480 min after administration. Blood samples were centrifuged to obtain 1 ml of plasma.
Non compartmental modeling method (statistical moment) was applied in the data analysis. Estimating formula of corresponding parameters is as follows:
AUC0˜τ=Σ(Ci+Ci−1)×(ti−ti−1)/2
AUC0˜∞=Σ(Ci+Ci−1)×(ti−ti−1)/2+Cn/λ
AUMC0˜∞=Σ(Citi+Ci−1ti−1)×(ti−ti−1)/2+Cn(1/λ^2+tn/λ)
Where, in the formula, λ indicates the number of terminal eliminating rate of the concentration-time curve. tn and Cn represent the latest time of blood-sampling and plasma drug concentration, respectively. Pharmacokinetical parameters such as tmax and Cmax take the corresponding measuring value of plasma samples.
These pharmacokinetic parameters are obtained with non compartmental modeling method.

anesthetized dogs = assay: Hemodynamics in anesthetized dogs, iv; type: in vivo
Description: Solvent control group, Isosorbide Dinitrate control group (0.4 mg/kg/h) and administration groups of 3,4′,5-trihydroxy-stilbene-3-[…]-D-glucoside at low (2.5 mg/kg), middle (5 mg/kg) or high (10 mg/kg) doses were set up for the test. Isosorbide Dinitrate control group were medicated by continuous intravenous infusion and other groups by intravenous injection.
After anesthetized with pentobarbital sodium, the dog was immobilized on its back. A femoral artery was separated for insertion of a catheter to record blood pressure of artery. A cardiac catheter was guided inversely from right common carotid artery into its left ventricle. Both catheters were connected to pressure transmitters. After pressure signals were amplified with carriers, they were input into an electrophysiolograph Powerlab system 8s, (ML785/8S AD Instruments, Australia). Needle electrodes were punctured into four limbs to monitor standard 2-lead ECG. A computer (chart4.12, ML785/8S, AD Instruments, Australia) were applied for real-time monitoring and storage of data. After operation, there were 30 minutes for stableness and then basic indexes were recorded before administration. Negative control group were given by […] injection of solvent at 2 ml/kg, while positive control group were intravenously infused at 0.4 mg/kg/h. […]
Indexes of observation included heart rate (HR), systolic blood pressure (BPs), diastolic blood pressure, mean blood pressure, left ventricular systolic pressure (LVSP), left ventricular diastolic pressure (LVDP), the maximum change rate of left ventricular systolic pressure rise and fall (±dp/dtmax), left ventricular end diastolic pressure and ECG.
Significance of differences was checked.

[2] = Beagle dogs, single dose iv, 10 mg/Kg, non compartmental
[3] = Beagle dogs, single dose iv, 20 mg/Kg, non compartmental
[4] = Beagle dogs, single dose iv, 30 mg/Kg, non compartmental
[5] = TSG 2.5 mg/kg iv, Time c1-c5: 0,10,30,60,120 min, 10 min after dosing
[6] = TSG 2.5 mg/kg iv, Time c1-c5: 0,10,30,60,120 min, 30 min after dosing
[7] = TSG 2.5 mg/kg iv, Time c1-c5: 0,10,30,60,120 min, 60 min after dosing
[8] = TSG 2.5 mg/kg iv, Time c1-c5: 0,10,30,60,120 min, 120 min after dosing
[9] = TSG 2.5 mg/kg iv, Time c1-c5: 0,10,30,60,120 min, before dosing (0 min)

3,4′,5-trihydroxy-stilbene-3-β-D-glucoside [TSG]
AUC0~∞ ([1]; 10 mg/kg iv): 315.42 ± 60.82 µg·min/mL and 315 µg·min/mL | terminal elimination half life (t1/2) ([1]; 10 mg/kg iv): 2.7978 ± 2.8483 h and 2.8 h | AUC0~∞ ([1]; 20 mg/kg iv): 745.75 ± 175.84 µg·min/mL and 745 µg·min/mL | terminal elimination half life (t1/2) ([1]; 20 mg/kg iv): 2.5175 ± 0.9553 h and 2.53 h | AUC0~∞ ([1]; 30 mg/kg iv): 1552.71 ± 227.28 µg·min/mL and 1552 µg·min/mL | terminal elimination half life (t1/2) ([1]; 30 mg/kg iv): 6.2182 ± 6.2163 h and 6.22 h | maximum plasma drug concentration ([1]; 30 mg/kg iv): 100 µg/mL | maximum plasma drug concentration ([1]; 30 mg/kg iv, listed as 3,4′,5-trihydroxy-stilbene-3-β-D-glucoside): about 100 μg/ml; also recorded: approximately 0.25 mM | AUC0~480 [1, 2]: 283.05 ± 49.85 µg·min/mL | AUC0~∞ [1, 2]: 315.42 ± 60.82 µg·min/mL | CI [1, 2]: 0.03 ± 0.01 L/min | MRT [1, 2]: 2.3343 ± 2.0812 h | Vss [1, 2]: 4.21 ± 3.06 L | t1/2 [1, 2]: 2.7978 ± 2.8483 h | AUC0~480 [1, 3]: 718.32 ± 179.10 µg·min/mL | AUC0~∞ [1, 3]: 745.75 ± 175.84 µg·min/mL | CI [1, 3]: 0.03 ± 0.01 L/min | MRT [1, 3]: 1.301 ± 0.204 h | Vss [1, 3]: 2.24 ± 0.78 L | t1/2 [1, 3]: 2.5175 ± 0.9553 h | AUC0~480 [1, 4]: 1432.17 ± 349.97 µg·min/mL | AUC0~∞ [1, 4]: 1552.71 ± 227.28 µg·min/mL | CI [1, 4]: 0.02 ± 0.00 L/min | MRT [1, 4]: 3.068 ± 4.0013 h | Vss [1, 4]: 4.25 ± 6.35 L | t1/2 [1, 4]: 6.2182 ± 6.2163 h | +dp/dt max (anesthetized dogs; [5]): 829.1 ± 308.3 Kpa/s | BPd (anesthetized dogs; [5]): 18.3 ± 2.3 KPa | BPm (anesthetized dogs; [5]): 20.7 ± 2.1 KPa | BPs (anesthetized dogs; [5]): 24.5 ± 2.0 KPa | HR (anesthetized dogs; [5]): 160.4 ± 18.4 p/min | LVDP (anesthetized dogs; [5]): 0.45 ± 2.40 KPa | LVEDP (anesthetized dogs; [5]): 1.00 ± 2.33 KPa | LVSP (anesthetized dogs; [5]): 25.2 ± 4.2 KPa | −dp/dt max (anesthetized dogs; [5]): 777.3 ± 241.8 Kpa/s | +dp/dt max (anesthetized dogs; [6]): 869.6 ± 235.9 Kpa/s | BPd (anesthetized dogs; [6]): 18.5 ± 2.2 KPa | BPm (anesthetized dogs; [6]): 20.8 ± 1.7 KPa | BPs (anesthetized dogs; [6]): 24.7 ± 1.3 KPa | HR (anesthetized dogs; [6]): 161.7 ± 18.0 p/min | LVDP (anesthetized dogs; [6]): 0.28 ± 2.40 KPa | LVEDP (anesthetized dogs; [6]): 1.11 ± 2.50 KPa | LVSP (anesthetized dogs; [6]): 25.7 ± 3.8 KPa | −dp/dt max (anesthetized dogs; [6]): 873.9 ± 236.8 Kpa/s | +dp/dt max (anesthetized dogs; [7]): 993.9 ± 206.2 Kpa/s | BPd (anesthetized dogs; [7]): 19.1 ± 2.5 KPa | BPm (anesthetized dogs; [7]): 21.6 ± 2.0 KPa | BPs (anesthetized dogs; [7]): 25.5 ± 1.6 KPa | HR (anesthetized dogs; [7]): 171.1 ± 18.8 p/min | LVDP (anesthetized dogs; [7]): 0.26 ± 2.35 KPa | LVEDP (anesthetized dogs; [7]): 0.78 ± 2.37 KPa | LVSP (anesthetized dogs; [7]): 26.5 ± 2.5 KPa | −dp/dt max (anesthetized dogs; [7]): 905.9 ± 207.8 Kpa/s | +dp/dt max (anesthetized dogs; [8]): 957.9 ± 190.0 Kpa/s | BPd (anesthetized dogs; [8]): 18.1 ± 1.8 KPa | BPm (anesthetized dogs; [8]): 20.2 ± 2.3 KPa | BPs (anesthetized dogs; [8]): 23.7 ± 3.3 KPa | HR (anesthetized dogs; [8]): 170.5 ± 16.1 p/min | LVDP (anesthetized dogs; [8]): 0.50 ± 2.06 KPa | LVEDP (anesthetized dogs; [8]): 1.09 ± 2.16 KPa | LVSP (anesthetized dogs; [8]): 26.7 ± 2.3 KPa | −dp/dt max (anesthetized dogs; [8]): 852.5 ± 159.6 Kpa/s | +dp/dt max (anesthetized dogs; [9]): 853.1 ± 321.1 Kpa/s | BPd (anesthetized dogs; [9]): 18.5 ± 1.7 KPa | BPm (anesthetized dogs; [9]): 21.1 ± 2.0 KPa | BPs (anesthetized dogs; [9]): 25.3 ± 3.0 KPa | HR (anesthetized dogs; [9]): 163.7 ± 21.1 p/min | LVDP (anesthetized dogs; [9]): 0.39 ± 2.20 KPa | LVEDP (anesthetized dogs; [9]): 1.14 ± 2.18 KPa | LVSP (anesthetized dogs; [9]): 24.9 ± 4.0 KPa | −dp/dt max (anesthetized dogs; [9]): 772.0 ± 201.0 Kpa/s | +dp/dt max (anesthetized dogs; TSG 5 mg/kg iv, Time c1-c5: 0,15,30,60,120 min, 0 min, before dosing): 822.6 ± 353.8 Kpa/s

— US20080176810A1, “Use of 3, 4', 5-Trihydroxy-Stilbene-3-Beta-D-glucoside in Prepartion of Medicines For Treating and/or Preventing Ischemic Heart Disease” (SHENZHEN NEPTUNUS PHARMACEUTICAL CO., LTD., priority 2004, published 2008)
